Read-outs that look alike come from different tables or passages of the source.
Tests used:
[1] = Stability in aqueous solution at neutral pH (31P-NMR); format: physicochemical
Source text: Typically, no decomposition is observed within seven days after dissolving the phosphaplatin compounds in water and observing by ^31P-NMR spectroscopy.

[2] = system: human ovarian cancer A2780 xenograft; experiment: In vivo efficacy, A2780 mouse xenograft; design: species or system mice
Experimental: Stable clonal ovarian cancer cell lines A2780 were grown in cell culture until 80-90% confluency was reached. Trypsin (GIBCO/BRL, Grand Island, N.Y.) was used to detach adherent cells. Trypsinized cells were thoroughly washed with PBS (Phosphate Buffered Saline) to remove trypsin. Efficacy of phosphaplatin compounds were evaluated using human ovarian cancer, A2780 by subcutaneous xenograft in SCID Hairless OutBred, SHO-Prkdc^scidHr^hr, (Charles River Labs, Wilmington, Mass.) mice. Female SCID mice 4 to 5 weeks old were acclimated for one week before initiation of efficacy trials.
Cancer cells were re-suspended in PBS, and all mice except for negative control mice were injected subcutaneously with from 1×10^6 cells/0.10 mL to 5×10^6 cells/0.10 mL in PBS and were evaluated for tumors as a function of time using sterile 26 gauge needles and syringes. The mice were examined daily for tumor growth. Tumors were measured using digital calipers. The tumor volume was calculated by the formula (W^2×L)/2, where W is the tumor measurement at the widest point, and L is the tumor dimension at the longest point, where the volume of the tumor in mm^3 is equivalent to the weight in mg. […]
The xenograft SCID mice were monitored every day for any adverse events in their health by measuring weight loss/gain and food consumption. […]

[3] = system: human ovarian cancer OVCAR-10 xenograft; experiment: In vivo efficacy, OVCAR-10 mouse xenograft; design: species or system mice; settings: 40 mg/kg body weight, during the treatment time
Experimental: Stable human clonal ovarian cancer cell lines OVCAR-10 and head and neck cancer UMSCC10b were grown separately in cell culture until 80-90% confluency was reached. Trypsin (GIBCO/BRL, Grand Island, N.Y.) was used to detach adherent cells. Trypsinized cells were thoroughly washed with PBS (Phosphate Buffered Saline) to remove trypsin. Efficacy of phosphaplatin compounds were evaluated by subcutaneously implanting human OVCAR-10 and UMSCC-10b xenograft in SCID Hairless OutBred, SHO-Prkdc^scidHr^hr, (Charles River Labs, Wilmington, Mass.) mice, NIH (NIH III: NIHBNX-F; NIHS-Lystbg Foxnlnu Btkxid, 4-week old female, Taconic (Rensselaer, N.Y.) mice.
Female SCID/NIH mice 4-5 weeks old were acclimated for one week before initiation of efficacy trials. Cancer cells were re-suspended in PBS and all mice except for negative control mice were injected subcutaneously with from 1×10^6 cells/0.10 mL to 5×10^6 cells/0.10 mL in PBS. The tumor size was evaluated as a function of time. The mice were examined daily for tumor growth. Tumors were measured using digital calipers. The tumor volume was calculated by the formula (W^2×L)/2, where W is the tumor measurement at the widest point, and L is the tumor dimension at the longest point, where the volume of the tumor in mm^3 is equivalent to the weight in mg.
After approximately 2 weeks of the subcutaneous injection of cancer cells, the tumors that had reached a distinguishable tumor sizes (approximately 100 mm^3 to 200 mm^3), phosphaplatin compounds of desired doses were administered intra-peritoneally. These administrations were done one time on day 1, once on day 3, and once on day 5.
Each group of xenograft mice was treated with phosphaplatin compounds, and a matched set was treated with vehicle/placebo (PBS solution) and mock injection (as a control for stress response). […] The xenograft SCID mice/NIH were monitored every day for any adverse events in their health by measuring weight loss/gain and food consumption. Measurements were stopped and the study was ended when the tumor size exceeded 3000 mm^3. […]

Structure (SMILES) | stability at neutral pH in aqueous solution [1] | tumor response ([2]; 10 mg/kg qodx3, first ten days of treatment) | tumor response [3] | stability at neutral pH in aqueous solution ([1]; dissolved in water, observed by 31P-NMR, seven days) | tumor response ([2]; 40 mg/kg qodx3, first ten days of treatment)
O=P1(O)OP(=O)(O)[O][Pt]2([OH])([OH])([NH][C@@H]3CCCC[C@H]3[NH]2)[O]1 [(1R,2R)-pyrodach-4, ((1R,2R)-1,2-cyclohexanediamine)-trans-dihydroxo(dihydrogenpyrophosphato)platinum (IV)] | remarkable stability | tumor regression | tumor regression | – | –
O=P1(O)OP(=O)(O)[O][Pt]2([NH][C@@H]3CCCC[C@H]3[NH]2)[O]1 (stereo partly drawn) [(1R,2R)-pyrodach-2, ((1R,2R)-1,2-cyclohexanediamine)(dihydrogenpyrophosphato)platinum (II)] | – | – | tumor regression | remarkable stability | tumor regression
